Test results taken from US20250263370A1 (Tay Therapeutics Limited, priority 2022, published 2025).
“And” between values parts separate entries of the source, which are not always exact repeats. Identical values can stand only once.

System: collagen-induced arthritis
Assay: Collagen-induced arthritis (CIA) model in rats: body weight, paw volume, clinical scores, clinical observations; for Average detailed clinical score, left hind limb: key of the grades not given here; for Average detailed clinical score, right hind limb: key of the grades not given here; for Detailed Clinical Scores, left forelimb: key of the grades not given here; for Detailed Clinical Scores, left hind limb: key of the grades not given here; for Detailed Clinical Scores, right forelimb: key of the grades not given here; for Detailed Clinical Scores, right hind limb: key of the grades not given here; for Detailed Clinical Scores, score: key of the grades not given here; for Mean overall clinical score ± SD: key of the grades not given here; for Overall clinical score: key of the grades not given here
Settings: for Mean animal paw volume ± SD: group mean; for Detailed Clinical Scores, left forelimb / Detailed Clinical Scores, left hind limb / Detailed Clinical Scores, right forelimb / Detailed Clinical Scores, right hind limb / Detailed Clinical Scores, score: individual animals ID 1-8; for Overall clinical score: individual animals #1-8
[1] = CIA rats, daily P.O. (group 4), day 21
[2] = CIA rats, daily P.O. for 21 days

Experimental: Prior to be randomly placed in treatment groups, animals were weighed, and paw volume was measured. Once randomly assigned to treatment groups, on Day 0, animals in groups 2-9 were immunized by subcutaneous injection at the base of the tail.
The immunization comprised 100 μL of the CFA+Collagen emulsion (prepared according to the method in Experimental Method A). Animals in group one received no immunization. Seven days after the first injection, animals in groups 2-9 received a booster immunization comprising 200 μL of the IFA+Collagen emulsion (prepared according to the method in Experimental Method A).
Starting on Day 0, animals in group 1 and 2 were administered daily doses of the vehicle per os (P.O.) for 21 days. […] The twice daily doses for animals in groups 4-9 were 8 hours apart (e.g., the first dose at 8:00 AM and the second dose at 4:00 PM).
Body weight of all animals was recorded daily for the 21-day period. Blind clinical scores on all four limbs were conducted for all animals in the study. Animals were assessed prior to receiving their first dose of the compound or control, and scores for each limb were combined to a total daily score for each animal. Clinical score assessments were performed on Day 0, 6, 12, 13, 14, 15, 18, 19, and 21 (for a total of 9 daily scores).
Paw volume was recorded for each animal on Day 0, 6, 12, 13, 14, 15, 18, 19, and 21 (for a total of 9 measurements). To measure paw volume, animals were gently held with one hand while the hind paw was placed into a plethysmometer with the other hand. Lipid displacement by the paw was recorded and used to represent paw volume.
All data measured and recorded was analyzed using SPSS 16.0 software. Groups were compared using one-way ANOVA and significance was set at p<0.05.

Q: What does the source list for CNC(=O)c1cc(C(=O)NC2CC2)cn(Cc2ccccc2)c1=O [GSK620]?
A: Average animal paw volume percent change (CIA rats, Day 0, left hind paw (L)): 0.00%; Animal paw volume Day 0 L (CIA rats, Day 0, left paw, individual animals): 1.27 mL (2×) and 1.32 mL (2×) and 1.37 mL (2×) and 1.34 mL and 1.35 mL; Average animal paw volume percent change (CIA rats, Day 0, right hind paw (R)): 0.00%; Animal paw volume Day 0 R (CIA rats, Day 0, right paw, individual animals): 1.27 mL and 1.31 mL and 1.28 mL and 1.37 mL (2×) and 1.33 mL (2×) and 1.34 mL; Average animal paw volume percent change (CIA rats, Day 6, left hind paw (L)): 1.04%; Animal paw volume Day 6 L (CIA rats, Day 6, left paw, individual animals): 1.27 mL and 1.34 mL (2×) and 1.37 mL and 1.36 mL and 1.38 mL and 1.32 mL and 1.35 mL; Average animal paw volume percent change (CIA rats, Day 6, right hind paw (R)): 1.50%; Animal paw volume Day 6 R (CIA rats, Day 6, right paw, individual animals): 1.27 mL and 1.35 mL and 1.38 mL and 1.37 mL and 1.39 mL and 1.33 mL (2×) and 1.34 mL; Average animal paw volume percent change (CIA rats, Day 12, left hind paw (L)): 3.13%; Animal paw volume Day 12 L (CIA rats, Day 12, left paw, individual animals): 1.33 mL (2×) and 1.41 mL and 1.37 mL and 1.42 mL and 1.36 mL and 1.35 mL and 1.38 mL; Average animal paw volume percent change (CIA rats, Day 12, right hind paw (R)): 3.69%; Animal paw volume Day 12 R (CIA rats, Day 12, right paw, individual animals): 1.31 mL and 1.35 mL and 1.42 mL and 1.39 mL (2×) and 1.38 mL (2×) and 1.37 mL; Average animal paw volume percent change (CIA rats, Day 13, left hind paw (L)): 4.09%; Animal paw volume Day 13 L (CIA rats, Day 13, left paw, individual animals): 1.34 mL (2×) and 1.43 mL (2×) and 1.36 mL and 1.37 mL and 1.38 mL and 1.40 mL; Average animal paw volume percent change (CIA rats, Day 13, right hind paw (R)): 6.88%; Animal paw volume Day 13 R (CIA rats, Day 13, right paw, individual animals): 1.40 mL and 1.35 mL and 1.42 mL (2×) and 1.57 mL and 1.37 mL and 1.41 mL and 1.39 mL; Average animal paw volume percent change (CIA rats, Day 14, left hind paw (L)): 17.19%; Animal paw volume Day 14 L (CIA rats, Day 14, left paw, individual animals): 1.55 mL and 1.78 mL and 1.44 mL and 1.36 mL and 1.43 mL and 1.40 mL and 1.73 mL (2×); Average animal paw volume percent change (CIA rats, Day 14, right hind paw (R)): 26.62%; Animal paw volume Day 14 R (CIA rats, Day 14, right paw, individual animals): 1.74 mL and 1.49 mL and 1.44 mL and 2.11 mL and 1.43 mL and 1.38 mL and 1.99 mL and 1.83 mL; Average animal paw volume percent change (CIA rats, Day 15, left hind paw (L)): 31.82%; Animal paw volume Day 15 L (CIA rats, Day 15, left paw, individual animals): 2.04 mL and 2.03 mL and 1.39 mL and 1.49 mL and 1.52 mL and 1.60 mL and 2.14 mL and 1.75 mL; Average animal paw volume percent change (CIA rats, Day 15, right hind paw (R)): 40.45%; Animal paw volume Day 15 R (CIA rats, Day 15, right paw, individual animals): 2.05 mL and 2.08 mL and 1.38 mL and 2.42 mL and 1.47 mL and 1.56 mL and 2.13 mL and 1.79 mL; Average animal paw volume percent change (CIA rats, Day 18, left hind paw (L)): 87.52%; Animal paw volume Day 18 L (CIA rats, Day 18, left paw, individual animals): 2.72 mL and 2.54 mL and 2.39 mL and 2.87 mL and 2.29 mL and 2.05 mL and 2.66 mL and 2.34 mL; Average animal paw volume percent change (CIA rats, Day 18, right hind paw (R)): 78.42%; Animal paw volume Day 18 R (CIA rats, Day 18, right paw, individual animals): 2.62 mL and 2.45 mL and 2.41 mL and 3.15 mL and 1.46 mL and 2.04 mL and 2.38 mL and 2.34 mL; Average animal paw volume percent change (CIA rats, Day 19, left hind paw (L)): 92.23%; Animal paw volume Day 19 L (CIA rats, Day 19, left paw, individual animals): 2.71 mL and 2.54 mL and 2.32 mL (2×) and 3.06 mL and 2.61 mL and 2.19 mL and 2.63 mL; Average animal paw volume percent change (CIA rats, Day 19, right hind paw (R)): 78.62%; Animal paw volume Day 19 R (CIA rats, Day 19, right paw, individual animals): 2.59 mL and 2.46 mL and 2.33 mL (2×) and 3.15 mL and 1.46 mL and 2.20 mL and 2.36 mL; Average animal paw volume percent change (CIA rats, Day 21, left hind paw (L)): 91.34%; Animal paw volume Day 21 L (CIA rats, Day 21, left paw, individual animals): 2.71 mL and 2.51 mL and 2.34 mL and 3.04 mL and 2.62 mL and 2.21 mL and 2.54 mL and 2.32 mL; Average animal paw volume percent change (CIA rats, Day 21, right hind paw (R)): 78.28%; Animal paw volume Day 21 R (CIA rats, Day 21, right paw, individual animals): 2.63 mL and 2.44 mL and 2.21 mL and 3.08 mL and 1.61 mL and 2.18 mL and 2.37 mL and 2.33 mL; animals with a clinical score of at least 2 in one or more hind limbs (CIA rats, daily P.O. (group 4), day 14): 5/8; animals with clinical scores of 3 or greater in one or more hind limbs (CIA rats, daily P.O. (group 4), day 18): all animals; animals with a clinical score of 4 in each hind limb [1]: 3/8; animals with a score of 4 in at least one hind limb [1]: 5/8; day on which clinical scores started to increase [2]: 14 days; effect on hind paw volume [2]: less effective at preventing an increase in paw volume over the course of the study; average overall clinical score at plateau (CIA rats, daily P.O. for 21 days, around day 18): 8; animals showing signs of disease (CIA rats, daily P.O., day 12): No animals; animals exhibiting disease (CIA rats, daily P.O., day 13): 1/8; animals exhibiting disease (CIA rats, daily P.O., day 14): 5/8; animals exhibiting disease (CIA rats, daily P.O., day 15): 7/8; animals exhibiting disease (CIA rats, daily P.O., day 18): all animals; Mean animal paw volume ± SD (Day 0, L paw): 1.32 mL; Animal paw volume percent change (Day 0, L paw, individual animals): 0.00%; Mean animal paw volume ± SD (Day 0, R paw): 1.32 mL; Animal paw volume percent change (Day 0, R paw, individual animals): 0.00%; Average detailed clinical score, left forelimb (Day 0, CIA rats): 0.00; Average detailed clinical score, left hind limb (Day 0, CIA rats): 0.00; Average detailed clinical score, right forelimb (Day 0, CIA rats): 0.00; Average detailed clinical score, right hind limb (Day 0, CIA rats): 0.00; Average detailed clinical score, score (Day 0, CIA rats): 0.00; Mean overall clinical score ± SD (Day 0, CIA rats): 0 ± 0; Detailed Clinical Scores, left forelimb (Day 0, CIA rats): 0; Detailed Clinical Scores, left hind limb (Day 0, CIA rats): 0; Detailed Clinical Scores, right forelimb (Day 0, CIA rats): 0; Detailed Clinical Scores, right hind limb (Day 0, CIA rats): 0; Detailed Clinical Scores, score (Day 0, CIA rats): 0; Overall clinical score (Day 0, CIA rats): 0; Mean animal paw volume ± SD (Day 6, L paw): 1.34 mL; Animal paw volume percent change (Day 6, L paw, individual animals): −0.39% and 1.52% and 7.91% and −0.73% and 0.36% and 0.00% (2×) and −0.37%; Mean animal paw volume ± SD (Day 6, R paw): 1.34 mL; Animal paw volume percent change (Day 6, R paw, individual animals): −0.39% and 3.07% and 7.84% and 0.00% (4×) and 1.47%; Average detailed clinical score, left forelimb (Day 6, CIA rats): 0.00; Average detailed clinical score, left hind limb (Day 6, CIA rats): 0.00; Average detailed clinical score, right forelimb (Day 6, CIA rats): 0.00; Average detailed clinical score, right hind limb (Day 6, CIA rats): 0.00; Average detailed clinical score, score (Day 6, CIA rats): 0.00; Mean overall clinical score ± SD (Day 6, CIA rats): 0 ± 0; Detailed Clinical Scores, left forelimb (Day 6, CIA rats): 0; Detailed Clinical Scores, left hind limb (Day 6, CIA rats): 0; Detailed Clinical Scores, right forelimb (Day 6, CIA rats): 0; Detailed Clinical Scores, right hind limb (Day 6, CIA rats): 0; Detailed Clinical Scores, score (Day 6, CIA rats): 0; Overall clinical score (Day 6, CIA rats): 0; Mean animal paw volume ± SD (Day 12, L paw): 1.36 mL; Animal paw volume percent change (Day 12, L paw, individual animals): 4.33% and 0.76% and 11.07% and 0.00% and 3.28% and 1.50% and 2.28% and 1.85%; Mean animal paw volume ± SD (Day 12, R paw): 1.37 mL; Animal paw volume percent change (Day 12, R paw, individual animals): 2.76% and 3.07% and 10.98% and 1.47% (2×) and 3.77% (2×) and 2.25%; Average detailed clinical score, left forelimb (Day 12, CIA rats): 0.00; Average detailed clinical score, left hind limb (Day 12, CIA rats): 0.00; Average detailed clinical score, right forelimb (Day 12, CIA rats): 0.00; Average detailed clinical score, right hind limb (Day 12, CIA rats): 0.00; Average detailed clinical score, score (Day 12, CIA rats): 0.00; Mean overall clinical score ± SD (Day 12, CIA rats): 0 ± 0; Detailed Clinical Scores, left forelimb (Day 12, CIA rats): 0; Detailed Clinical Scores, left hind limb (Day 12, CIA rats): 0; Detailed Clinical Scores, right forelimb (Day 12, CIA rats): 0; Detailed Clinical Scores, right hind limb (Day 12, CIA rats): 0; Detailed Clinical Scores, score (Day 12, CIA rats): 0; Overall clinical score (Day 12, CIA rats): 0
